{
  "source": "ChEMBL document CHEMBL4346741",
  "about": "“Synthesis, pharmacological evaluation, and mechanistic study of adefovir mixed phosphonate derivatives bearing cholic acid and l-amino acid moieties for the treatment of HBV” (Bioorg Med Chem, 2019)",
  "key": {"[1]": {"tested_on": "Hepatitis B virus", "experiment": "Antiviral activity against Hepatitis B virus infected in human HepG2.2.15 cells assessed as inhibition of viral DNA synthesis incubated for 2 days followed by replacement of fresh medium containing compound and measured at day 10 by RT-PCR analysis", "assay_type": "functional, organism-based"}, "[2]": {"tested_on": "HepG2 2.2.15", "experiment": "Cytotoxicity against human HepG2.2.15 cells assessed as reduction in cell viability incubated for 12 hrs followed by replacement of fresh medium containing compound and measured after 2 days by CCK-8 assay", "assay_type": "functional"}, "[3]": {"experiment": "Selectivity index, ratio of CC50 for cytotoxicity against human HepG2.2.15 cells to EC50 for HBV infected in human HepG2.2.15 cells", "assay_type": "toxicity, cell-based", "settings": "read-out: Ratio CC50/EC50; call rule not given here"}, "[4]": {"tested_on": "HK-2", "experiment": "Cytotoxicity against human HK2 cells assessed as reduction in cell viability at 100 umol/L after 72 hrs by MTT assay relative to control", "assay_type": "cell-based", "settings": "hk-2, 72 h, 100 µM"}, "[5]": {"tested_on": "HK-2", "experiment": "Reduction in mitochondrial membrane potential in human HK2 cells assessed as decrease in red fluorescence at 25 to 100 uM after 72 hrs by JC-1 staining based flow cytometry", "assay_type": "ADME, cell-based", "settings": "hk-2, 72 h"}, "[6]": {"tested_on": "HK-2", "experiment": "Reduction in mitochondrial membrane potential in human HK2 cells assessed as increase in green fluorescence at 25 to 100 uM after 72 hrs by JC-1 staining based flow cytometry", "assay_type": "ADME, cell-based", "settings": "hk-2, 72 h"}, "[7]": {"tested_on": "HK-2", "experiment": "Induction of mitochondrial membrane dysfunction in human HK2 cells assessed as reduction in mitochondrial potential at 100 uM after 72 hrs by JC-1 staining based flow cytometry", "assay_type": "cell-based", "settings": "hk-2, 72 h"}, "[8]": {"tested_on": "HK-2", "experiment": "Induction of apoptosis in human HK2 cells assessed as nuclear pyknosis at 25 to 100 uM measured after 72 hrs by Hoechst 33342 staining based fluorescence assay", "assay_type": "cell-based", "settings": "hk-2, 72 h"}, "[9]": {"tested_on": "HK-2", "experiment": "Induction of apoptosis in human HK2 cells assessed as dense staining at 25 to 100 uM measured after 72 hrs by Hoechst 33342 staining based fluorescence assay", "assay_type": "cell-based", "settings": "hk-2, 72 h"}, "[10]": {"tested_on": "HK-2", "experiment": "Induction of apoptosis in human HK2 cells assessed as presence of apoptotic bodies at 25 to 100 uM measured after 72 hrs by Hoechst 33342 staining based fluorescence assay", "assay_type": "cell-based", "settings": "hk-2, 72 h"}, "[11]": {"tested_on": "HK-2", "experiment": "Induction of apoptosis in human HK2 cells assessed as early apoptotic cells at 25 uM measured after 72 hrs by Annexin V-FITC/propidium iodide staining based flow cytometry (reference value: 8.1%)", "assay_type": "cell-based", "settings": "hk-2, 72 h"}, "[12]": {"tested_on": "HK-2", "experiment": "Induction of apoptosis in human HK2 cells assessed as early apoptotic cells at 50 uM measured after 72 hrs by Annexin V-FITC/propidium iodide staining based flow cytometry (reference value: 8.1%)", "assay_type": "cell-based", "settings": "hk-2, 72 h"}, "[13]": {"tested_on": "HK-2", "experiment": "Induction of apoptosis in human HK2 cells assessed as early apoptotic cells at 100 uM measured after 72 hrs by Annexin V-FITC/propidium iodide staining based flow cytometry (reference value: 8.1%)", "assay_type": "cell-based", "settings": "hk-2, 72 h"}, "[14]": {"tested_on": "HK-2", "experiment": "Induction of apoptosis in human HK2 cells assessed as reduction in Bcl-2 expression at 25 to 100 uM after 72 hrs by Western blot analysis", "assay_type": "cell-based", "settings": "hk-2, 72 h"}, "[15]": {"tested_on": "HK-2", "experiment": "Induction of apoptosis in human HK2 cells assessed as increase in Bax level at 25 to 100 uM after 72 hrs by Western blot analysis", "assay_type": "cell-based", "settings": "hk-2, 72 h"}, "[16]": {"tested_on": "HK-2", "experiment": "Induction of apoptosis in human HK2 cells assessed as increase in Bax/Bcl2 ratio after 72 hrs by Western blot analysis", "assay_type": "cell-based", "settings": "hk-2, 72 h"}, "[17]": {"tested_on": "HK-2", "experiment": "Induction of apoptosis in human HK2 cells assessed as induction of cleaved caspase 3 levels at 25 to 100 uM after 72 hrs by Western blot analysis", "assay_type": "cell-based", "settings": "hk-2, 72 h"}, "[18]": {"target": "T1, Solute carrier family 22 member 6 (Homo sapiens, UniProt Q4U2R8)", "T1 sequence (Q4U2R8 whole entry)": "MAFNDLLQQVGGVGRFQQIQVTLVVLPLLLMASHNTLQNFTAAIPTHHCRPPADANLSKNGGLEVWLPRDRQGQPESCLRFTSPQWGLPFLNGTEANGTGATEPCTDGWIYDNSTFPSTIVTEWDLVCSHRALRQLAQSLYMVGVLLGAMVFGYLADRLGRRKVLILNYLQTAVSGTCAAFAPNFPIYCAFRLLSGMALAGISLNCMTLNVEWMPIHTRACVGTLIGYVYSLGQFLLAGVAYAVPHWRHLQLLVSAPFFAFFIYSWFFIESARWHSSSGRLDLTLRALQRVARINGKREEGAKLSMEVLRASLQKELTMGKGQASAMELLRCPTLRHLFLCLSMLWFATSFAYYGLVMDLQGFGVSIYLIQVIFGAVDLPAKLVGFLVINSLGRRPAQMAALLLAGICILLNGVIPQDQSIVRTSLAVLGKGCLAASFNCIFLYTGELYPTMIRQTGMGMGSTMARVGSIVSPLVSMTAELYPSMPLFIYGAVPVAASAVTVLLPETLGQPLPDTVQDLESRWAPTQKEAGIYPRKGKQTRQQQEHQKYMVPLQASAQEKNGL", "experiment": "Substrate activity at human OAT1 expressed in HEK293 cells harboring pEGFP assessed as compound uptake measured after 20 mins by UPLC-MS/MS method", "assay_type": "ADME, cell-based", "settings": "hek293, 20 min"}, "[19]": {"target": "T1, Solute carrier family 22 member 6", "experiment": "Inhibition of human OAT1 expressed in HEK293 cells assessed as P-amino hippuric acid uptake inhibition incubated for 10 mins by UPLC-MS/MS method", "assay_type": "ADME, cell-based"}, "[20]": {"tested_on": "HEK293", "experiment": "Cytotoxicity against human HEK293 cells expressing OAT1 assessed as reduction in cell viability at 1000 uM after 1 hr by MTT assay relative to control", "assay_type": "ADME, cell-based", "settings": "hek293, 1 h"}, "[21]": {"experiment": "AUC (0 to t) in Sprague-Dawley rat at 100 mg/kg, po measured up to 24 hrs by LC-MS/MS analysis", "assay_type": "ADME, organism-based", "design": "dose 100 mg/kg, time < 24 hr, route oral", "settings": "in vivo"}, "[22]": {"experiment": "Volume of distribution in Sprague-Dawley rat at 100 mg/kg, po measured up to 24 hrs by LC-MS/MS analysis", "assay_type": "ADME, organism-based", "settings": "in vivo"}, "[23]": {"experiment": "Drug distribution in mouse kidney at 5.47 mg/kg, po measured up to 24 hrs by LC-MS/MS analysis", "assay_type": "ADME, organism-based", "settings": "in vivo"}, "[24]": {"tested_on": "HK-2", "experiment": "Cytotoxicity against human HK2 cells assessed as reduction in cell viability after 72 hrs by MTT assay", "assay_type": "cell-based", "settings": "hk-2, 72 h"}, "[25]": {"tested_on": "OAT1", "experiment": "Selectivity ratio, ratio of substrate activity at human OAT1 expressed in HEK293 cells harboring pEGFP assessed as compound uptake to substrate activity in human HEK293 cells harboring pEGFP-N1 empty vector assessed as compound uptake", "assay_type": "ADME, cell-based"}},
  "data": [
    {"smiles": "CC(C)(C)C(=O)OCOP(=O)(COCCn1cnc2c(N)ncnc21)OCOC(=O)C(C)(C)C", "note": "[ADEFOVIR DIPIVOXIL]", "values": [
      {"measurement": "EC50", "setting": "[1]", "result": 3.09, "unit": "µM"},
      {"measurement": "CC50", "setting": "[2]", "result": 439, "unit": "µM"},
      {"measurement": "selectivity ratio", "setting": "[3]", "result": 142},
      {"measurement": "Activity", "setting": "[4]", "result": 61.01, "unit": "%"},
      {"measurement": "Activity", "setting": "[5]", "result": "Toxic"},
      {"measurement": "Activity", "setting": "[6]", "result": "Toxic"},
      {"measurement": "Activity", "setting": "[7]", "result": "Toxic"},
      {"measurement": "Activity", "setting": "[8]", "result": "Toxic"},
      {"measurement": "Activity", "setting": "[9]", "result": "Toxic"},
      {"measurement": "Activity", "setting": "[10]", "result": "Toxic"},
      {"measurement": "Activity", "setting": "[11]", "result": 16.8, "unit": "%"},
      {"measurement": "Activity", "setting": "[12]", "result": 18.9, "unit": "%"},
      {"measurement": "Activity", "setting": "[13]", "result": 43.3, "unit": "%"},
      {"measurement": "Activity", "setting": "[14]", "result": "Toxic"},
      {"measurement": "Activity", "setting": "[15]", "result": "Toxic"},
      {"measurement": "Activity", "setting": "[16]", "result": "Dose-dependent effect"},
      {"measurement": "Activity", "setting": "[17]", "result": "Toxic"},
      {"measurement": "Activity", "setting": "[18]", "result": 400, "unit": "pmol/min/mg"},
      {"measurement": "IC50", "setting": "[19]", "result": 13.5, "unit": "µM"},
      {"measurement": "Activity", "setting": "[20]", "result": 47.16, "unit": "%"},
      {"measurement": "AUCt", "setting": "[21]", "result": 1655.225, "unit": "µg/L/h"},
      {"measurement": "Vd", "setting": "[22]", "result": 153.128, "unit": "L/kg"},
      {"measurement": "Drug uptake", "setting": "[23]", "result": "Active"},
      {"measurement": "Activity", "setting": "[24]", "result": "Dose-dependent effect"},
      {"measurement": "uptake ratio", "setting": "[25]", "result": 7.5}
    ]}
  ]
}
